Tested on: K562 CRISPRi cells
Experiment: Perturb-seq pooled growth measurement (sgRNA counts, growth phenotype γ, relative activity)
Assay type: cell-based, human
Details: sequencing read counts; for Perturb-seq pooled growth sgRNA counts, d5: 5 days of growth (day seven after transduction); for Perturb-seq pooled growth sgRNA counts, d10: 10 days of growth (day twelve after transduction); for Perturb-seq pooled growth sgRNA counts, T0: T0 = day two after transduction
Method in brief: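 CRISPRi K562 cells from the Perturb-seq transduced pool; 500,000-cell samples taken days two, seven and twelve post-transduction. sgRNA amplicons from genomic DNA sequenced; growth phenotypes from normalized sgRNA abundances at days seven and twelve versus day two. Relative activity assigned from day seven (five days' growth).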

| Substance | Perturb-seq pooled growth sgRNA counts, d5 | Perturb-seq pooled growth sgRNA counts, d10 | Perturb-seq pooled growth sgRNA counts, T0 |
| --- | --- | --- | --- |
| HSPA9_−_137911079.23-P1P2_02: sgRNA targeting HSPA9, GGAGTTGCGCGATGCGGTGG, SEQ ID NO: 133 (listed as DNA, chemistry not fully specified) | 1727 | 1872 | 4345 |
| GATA1_−_48645022.23-P1P2_04: sgRNA targeting GATA1, GTGAGCTTACCACATCCCCA, SEQ ID NO: 121 (listed as DNA, chemistry not fully specified) | 860 | 668 | 4714 |
| COX11_+_53045977.23-P1P2_00: sgRNA targeting COX11, GGCTCTGGCGTCCTGGATGG, SEQ ID NO: 141 (listed as DNA, chemistry not fully specified) | 11785 | 6198 | 8084 |
| GINS1_−_25388381.23-P1P2_08: sgRNA targeting GINS1, GGACTAGAGCGAAAGGAGTG, SEQ ID NO: 94 (listed as DNA, chemistry not fully specified) | 2461 | 1756 | 18173 |
| RAN_+_131356438.23-P1P2_00: sgRNA targeting RAN, GGCGGTCGCTGCGCTTAGGG, SEQ ID NO: 69 (listed as DNA, chemistry not fully specified) | 7598 | 8936 | 5444 |
| HSPA5_+_128003624.23-P1P2_00: sgRNA targeting HSPA5, GAGCCGAGTAGGCGACGGTG, SEQ ID NO: 88 (listed as DNA, chemistry not fully specified) | 1756 | 2176 | 5785 |
| SEC61A1_−_127771295.23-P1_00: sgRNA targeting SEC61A1, GGCACTGACGTGTCTCTCGG, SEQ ID NO: 83 (listed as DNA, chemistry not fully specified) | 2151 | 2025 | 11429 |
| GNB2L1_+_180670873.23-P1P2_07: sgRNA targeting GNB2L1, GTGCAAGGCGGGGGCAGGAG, SEQ ID NO: 58 (listed as DNA, chemistry not fully specified) | 8322 | 8738 | 9894 |
| HSPA9_−_137911079.23-P1P2_07: sgRNA targeting HSPA9, GGAGCTGCGGGATGCGGTGG, SEQ ID NO: 132 (listed as DNA, chemistry not fully specified) | 1513 | 1463 | 5941 |
| SEC61A1_−_127771295.23-P1_04: sgRNA targeting SEC61A1, GGCACTGAAGTGTCTCTCGG, SEQ ID NO: 87 (listed as DNA, chemistry not fully specified) | 7999 | 10772 | 5081 |
| MTOR_+_11322547.23-P1P2_10: sgRNA targeting MTOR, GGGCAGGGGGCCTGAAGCAG, SEQ ID NO: 150 (listed as DNA, chemistry not fully specified) | 7332 | 7827 | 7076 |
| RAN_+_131356438.23-P1P2_12: sgRNA targeting RAN, GGCGGTCGCTGCGCTTAGGT, SEQ ID NO: 73 (listed as DNA, chemistry not fully specified) | 16172 | 25349 | 7627 |
| RPL9_+_39460483.23-P1P2_05: sgRNA targeting RPL9, GGATGTTTCGGTGCTCGTGG, SEQ ID NO: 52 (listed as DNA, chemistry not fully specified) | 2217 | 2355 | 4950 |
| RPS14_+_149829238.23-P1P2_02: sgRNA targeting RPS14, GAGGCCCTGGCGCGACAATC, SEQ ID NO: 47 (listed as DNA, chemistry not fully specified) | 5497 | 5538 | 11519 |
| DUT_+_48624411.23-P1P2_01: sgRNA targeting DUT, GCCAGCGAGGAGACCACCGG, SEQ ID NO: 111 (listed as DNA, chemistry not fully specified) | 6764 | 3576 | 25227 |

From patent US20220259593A1, “CONTROL OF MAMMALIAN GENE DOSAGE USING CRISPR” (The Regents of the University of California, priority 2019, published 2022)
